How the values were obtained:
Experiment in all cases: radiometric filter-binding kinase assay
[1] = target: INSRR (human) (UniProt P14616)
[2] = target: MAPKAPK3 (human) (UniProt Q16644)
[3] = target: CDK2 CCNA2 (human) (UniProt P20248+P24941)
[4] = target: ERBB4 (human) (UniProt Q15303)
[5] = target: MKNK1 (human) (UniProt Q9BUB5)
[6] = target: GSK3B (human) (UniProt P49841)
[7] = tested on: LCK (mouse); conditions: accession and sequence are those of the human protein
[8] = target: IKBKB (human) (UniProt O14920); conditions: compound 0.01 µM
[9] = target: CHEK2 (human) (UniProt O96017)
[10] = target: MAPK13 (human) (UniProt O15264)
[11] = target: FGFR1 (human) (UniProt P11362)
Chain of FGFR1 (human) (P11362 whole entry, looked up): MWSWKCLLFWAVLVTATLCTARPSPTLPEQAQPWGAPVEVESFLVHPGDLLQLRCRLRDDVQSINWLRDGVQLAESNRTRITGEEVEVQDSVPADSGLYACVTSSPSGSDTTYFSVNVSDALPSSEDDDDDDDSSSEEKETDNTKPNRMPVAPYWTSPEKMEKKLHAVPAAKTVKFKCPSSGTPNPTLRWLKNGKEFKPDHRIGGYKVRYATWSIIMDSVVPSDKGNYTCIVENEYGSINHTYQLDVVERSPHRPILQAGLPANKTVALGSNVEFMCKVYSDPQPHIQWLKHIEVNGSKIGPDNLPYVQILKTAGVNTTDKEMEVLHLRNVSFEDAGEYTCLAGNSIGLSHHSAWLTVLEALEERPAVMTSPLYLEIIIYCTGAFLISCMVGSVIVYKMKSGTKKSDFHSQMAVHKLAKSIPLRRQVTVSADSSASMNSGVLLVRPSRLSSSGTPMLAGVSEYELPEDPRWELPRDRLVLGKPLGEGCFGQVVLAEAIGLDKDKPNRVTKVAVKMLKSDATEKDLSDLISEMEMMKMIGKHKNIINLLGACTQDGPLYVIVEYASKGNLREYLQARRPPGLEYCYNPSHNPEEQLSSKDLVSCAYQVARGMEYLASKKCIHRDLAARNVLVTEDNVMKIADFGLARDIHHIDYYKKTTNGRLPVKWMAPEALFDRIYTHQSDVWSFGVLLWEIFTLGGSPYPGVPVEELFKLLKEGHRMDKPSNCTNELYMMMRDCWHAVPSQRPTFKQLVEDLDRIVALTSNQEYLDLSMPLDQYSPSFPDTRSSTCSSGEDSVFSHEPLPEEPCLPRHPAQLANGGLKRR

[12] = target: MAP3K9 (human) (UniProt P80192)
[13] = target: EEF2K (human) (UniProt O00418)
[14] = target: MINK1 (human) (UniProt Q8N4C8)
[15] = target: TTK (human) (UniProt P33981)
Chain of TTK (human) (P33981 whole entry, looked up): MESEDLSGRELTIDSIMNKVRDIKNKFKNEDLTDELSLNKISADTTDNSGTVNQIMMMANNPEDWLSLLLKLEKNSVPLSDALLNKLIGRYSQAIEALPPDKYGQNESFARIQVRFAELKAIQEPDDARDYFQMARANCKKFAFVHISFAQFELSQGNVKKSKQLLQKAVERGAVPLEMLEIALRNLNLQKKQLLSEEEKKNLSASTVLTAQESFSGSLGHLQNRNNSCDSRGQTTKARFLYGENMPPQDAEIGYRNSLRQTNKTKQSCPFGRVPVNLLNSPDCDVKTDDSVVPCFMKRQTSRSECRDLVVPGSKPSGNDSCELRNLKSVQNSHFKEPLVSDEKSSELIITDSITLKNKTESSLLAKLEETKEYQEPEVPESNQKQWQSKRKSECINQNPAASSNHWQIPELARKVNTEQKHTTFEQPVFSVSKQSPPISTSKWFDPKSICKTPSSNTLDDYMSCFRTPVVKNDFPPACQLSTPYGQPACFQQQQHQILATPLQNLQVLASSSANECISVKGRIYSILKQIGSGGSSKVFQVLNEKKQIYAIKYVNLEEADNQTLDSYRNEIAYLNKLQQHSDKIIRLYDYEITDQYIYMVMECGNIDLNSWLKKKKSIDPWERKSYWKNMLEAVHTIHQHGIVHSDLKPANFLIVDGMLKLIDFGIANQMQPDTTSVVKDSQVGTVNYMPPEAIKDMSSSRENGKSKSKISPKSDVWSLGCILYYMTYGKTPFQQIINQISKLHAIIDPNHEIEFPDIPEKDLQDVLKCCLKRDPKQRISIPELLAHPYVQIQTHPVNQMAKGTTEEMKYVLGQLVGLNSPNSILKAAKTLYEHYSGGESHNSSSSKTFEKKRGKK

[16] = target: MAP2K2 (human) (UniProt P36507)
[17] = target: AURKB (human) (UniProt Q96GD4)
[18] = tested on: ROCK2 (rat); conditions: accession and sequence are those of the human protein
[19] = target: SRC (human) (UniProt P12931)
Chain of SRC (human) (P12931 whole entry, looked up): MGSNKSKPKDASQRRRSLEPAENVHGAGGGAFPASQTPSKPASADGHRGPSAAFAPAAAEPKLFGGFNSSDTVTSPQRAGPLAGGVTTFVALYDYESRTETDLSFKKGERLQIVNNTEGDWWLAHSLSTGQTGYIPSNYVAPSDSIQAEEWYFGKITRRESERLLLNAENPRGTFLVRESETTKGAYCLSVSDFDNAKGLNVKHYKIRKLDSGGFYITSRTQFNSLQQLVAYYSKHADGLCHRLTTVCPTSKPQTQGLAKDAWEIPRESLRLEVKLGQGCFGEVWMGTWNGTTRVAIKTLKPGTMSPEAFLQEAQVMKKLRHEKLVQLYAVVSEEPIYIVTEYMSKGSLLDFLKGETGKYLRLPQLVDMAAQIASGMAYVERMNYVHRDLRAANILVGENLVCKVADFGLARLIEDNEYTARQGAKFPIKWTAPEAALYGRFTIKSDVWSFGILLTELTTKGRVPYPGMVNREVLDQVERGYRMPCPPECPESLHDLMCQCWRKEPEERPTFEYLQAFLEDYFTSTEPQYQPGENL

[20] = target: EPHB3 (human) (UniProt P54753)
[21] = target: CSNK2A1 (human) (UniProt P68400)
Chain of CSNK2A1 (human) (P68400 whole entry, looked up): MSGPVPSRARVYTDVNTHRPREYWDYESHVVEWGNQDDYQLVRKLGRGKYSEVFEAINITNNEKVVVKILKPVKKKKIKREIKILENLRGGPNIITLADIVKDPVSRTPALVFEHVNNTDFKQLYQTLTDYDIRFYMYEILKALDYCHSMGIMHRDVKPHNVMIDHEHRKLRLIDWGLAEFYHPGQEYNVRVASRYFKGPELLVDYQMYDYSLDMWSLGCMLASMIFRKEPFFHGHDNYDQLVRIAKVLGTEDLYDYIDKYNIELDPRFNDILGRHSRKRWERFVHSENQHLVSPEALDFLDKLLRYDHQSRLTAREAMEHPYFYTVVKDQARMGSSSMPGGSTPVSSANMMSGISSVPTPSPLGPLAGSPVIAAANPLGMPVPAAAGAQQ

[22] = target: PRKACA (human) (UniProt P17612)
[23] = target: MELK (human) (UniProt Q14680)
Chain of MELK (human) (Q14680 whole entry, looked up): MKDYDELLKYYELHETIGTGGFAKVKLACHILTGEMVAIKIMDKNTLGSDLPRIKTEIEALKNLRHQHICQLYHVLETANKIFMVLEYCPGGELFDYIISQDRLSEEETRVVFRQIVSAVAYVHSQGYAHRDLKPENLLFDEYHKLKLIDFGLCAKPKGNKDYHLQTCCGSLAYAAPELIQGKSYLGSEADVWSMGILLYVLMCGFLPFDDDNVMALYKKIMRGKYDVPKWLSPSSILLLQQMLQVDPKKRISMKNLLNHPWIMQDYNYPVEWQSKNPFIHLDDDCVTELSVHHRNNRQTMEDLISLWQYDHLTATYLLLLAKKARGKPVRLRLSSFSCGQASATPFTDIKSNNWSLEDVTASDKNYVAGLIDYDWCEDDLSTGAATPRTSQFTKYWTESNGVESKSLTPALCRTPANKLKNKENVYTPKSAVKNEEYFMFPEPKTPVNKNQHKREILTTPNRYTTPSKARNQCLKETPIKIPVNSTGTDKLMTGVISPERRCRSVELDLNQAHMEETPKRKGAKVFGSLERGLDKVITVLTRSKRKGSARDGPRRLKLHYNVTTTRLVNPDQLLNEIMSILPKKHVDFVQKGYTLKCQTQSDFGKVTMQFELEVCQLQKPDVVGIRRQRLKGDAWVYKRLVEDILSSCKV

[24] = target: PHKG1 (human) (UniProt Q16816)
Chain of PHKG1 (human) (Q16816 whole entry, looked up): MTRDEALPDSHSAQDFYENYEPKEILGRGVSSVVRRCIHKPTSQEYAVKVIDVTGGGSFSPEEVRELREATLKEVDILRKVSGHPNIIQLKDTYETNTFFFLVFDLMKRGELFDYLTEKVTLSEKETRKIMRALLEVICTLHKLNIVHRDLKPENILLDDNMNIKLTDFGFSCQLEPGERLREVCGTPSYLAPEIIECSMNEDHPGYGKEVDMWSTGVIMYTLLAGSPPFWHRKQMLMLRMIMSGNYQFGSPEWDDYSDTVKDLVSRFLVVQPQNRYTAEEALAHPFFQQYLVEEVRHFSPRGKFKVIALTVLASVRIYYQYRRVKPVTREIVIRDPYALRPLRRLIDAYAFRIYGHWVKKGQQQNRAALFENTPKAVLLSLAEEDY

[25] = target: NTRK1 (human) (UniProt P04629)
[26] = target: RPS6KA1 KD1 KD2 (human) (UniProt Q15418)
[27] = tested on: PRKAA1 or PRKAA2 (rat); conditions: accession and sequence are those of the human protein
[28] = target: MAPK1 (human) (UniProt P28482)
Chain of MAPK1 (human) (P28482 whole entry, looked up): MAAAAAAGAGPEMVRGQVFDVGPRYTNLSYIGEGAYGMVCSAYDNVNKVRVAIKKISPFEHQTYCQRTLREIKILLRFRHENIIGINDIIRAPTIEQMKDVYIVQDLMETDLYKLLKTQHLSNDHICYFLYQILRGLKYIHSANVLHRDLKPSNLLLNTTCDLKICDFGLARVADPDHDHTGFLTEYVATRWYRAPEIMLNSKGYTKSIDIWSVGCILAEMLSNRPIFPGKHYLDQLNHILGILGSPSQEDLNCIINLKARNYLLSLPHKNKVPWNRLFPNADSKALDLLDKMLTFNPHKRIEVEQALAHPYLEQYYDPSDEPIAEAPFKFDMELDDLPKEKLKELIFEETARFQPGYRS

[29] = target: MARK4 (human) (UniProt Q96L34)
[30] = target: PRKCZ (human) (UniProt Q05513)
[31] = target: MKNK2 (human) (UniProt Q9HBH9)
[32] = target: STK11 CAB39 STRADA (human) (UniProt Q9Y376+Q7RTN6+Q15831)
[33] = target: MYLK (human) (UniProt Q15746)
[34] = target: CSK (human) (UniProt P41240)
[35] = target: DAPK1 (human) (UniProt P53355)

Chain of GSK3B (human) (P49841 whole entry, looked up): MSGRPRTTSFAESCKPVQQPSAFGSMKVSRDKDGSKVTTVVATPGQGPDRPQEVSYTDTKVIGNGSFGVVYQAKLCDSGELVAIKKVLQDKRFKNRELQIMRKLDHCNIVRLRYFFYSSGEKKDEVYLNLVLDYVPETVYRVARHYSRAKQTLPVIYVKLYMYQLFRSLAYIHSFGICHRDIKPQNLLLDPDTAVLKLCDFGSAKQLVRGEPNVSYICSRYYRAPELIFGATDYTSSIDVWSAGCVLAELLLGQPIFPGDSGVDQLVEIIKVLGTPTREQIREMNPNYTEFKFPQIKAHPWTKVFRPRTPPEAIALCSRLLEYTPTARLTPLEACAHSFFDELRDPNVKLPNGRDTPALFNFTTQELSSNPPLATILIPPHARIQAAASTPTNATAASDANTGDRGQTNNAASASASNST
Chain of MKNK1 (human) (Q9BUB5 whole entry, looked up): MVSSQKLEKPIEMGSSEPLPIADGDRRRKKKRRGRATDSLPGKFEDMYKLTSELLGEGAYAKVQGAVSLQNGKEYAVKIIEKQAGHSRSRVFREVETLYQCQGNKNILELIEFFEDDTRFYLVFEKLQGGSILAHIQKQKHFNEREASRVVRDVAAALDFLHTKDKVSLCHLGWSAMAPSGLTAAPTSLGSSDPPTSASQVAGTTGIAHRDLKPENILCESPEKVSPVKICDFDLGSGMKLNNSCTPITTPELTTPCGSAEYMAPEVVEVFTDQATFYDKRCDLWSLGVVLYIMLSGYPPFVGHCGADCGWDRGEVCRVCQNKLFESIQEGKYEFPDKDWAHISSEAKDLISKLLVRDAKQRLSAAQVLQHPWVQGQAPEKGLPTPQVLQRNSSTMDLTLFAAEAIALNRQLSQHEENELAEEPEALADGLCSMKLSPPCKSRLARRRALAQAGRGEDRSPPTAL

O=C(Nc1nc2cc(C(F)(F)F)cc(NC3CC3)n2n1)c1cccnc1
residual activity ([1]; compound 0.01 µM): 91% | residual activity ([1]; compound 0.1 µM): 104% | residual activity ([1]; compound 1.0 µM): 94% | residual activity ([2]; compound 0.01 µM): 97% | residual activity ([2]; compound 0.1 µM): 114% | residual activity ([2]; compound 1.0 µM): 97% | residual activity ([3]; compound 0.01 µM): 95% | residual activity ([3]; compound 0.1 µM): 98% | residual activity ([3]; compound 1.0 µM): 85% | residual activity ([4]; compound 0.01 µM): 106% | residual activity ([4]; compound 0.1 µM): 88% | residual activity ([4]; compound 1.0 µM): 88% | residual activity ([5]; compound 0.01 µM): 94% | residual activity ([5]; compound 0.1 µM): 99% | residual activity ([5]; compound 1.0 µM): 98% | residual activity ([6]; compound 0.01 µM): 87% | residual activity ([6]; compound 0.1 µM): 92% | residual activity ([6]; compound 1.0 µM): 79% | residual activity ([7]; compound 0.01 µM): 106% | residual activity ([7]; compound 0.1 µM): 97% | residual activity ([7]; compound 1.0 µM): 95% | residual activity [8]: 79% | residual activity ([9]; compound 0.01 µM): 93% | residual activity ([9]; compound 0.1 µM): 114% | residual activity ([9]; compound 1.0 µM): 89% | residual activity ([10]; compound 0.01 µM): 102% | residual activity ([10]; compound 0.1 µM): 90% | residual activity ([10]; compound 1.0 µM): 90% | residual activity ([11]; compound 0.01 µM): 111% | residual activity ([11]; compound 0.1 µM): 105% | residual activity ([11]; compound 1.0 µM): 101% | residual activity ([12]; compound 0.01 µM): 90% | residual activity ([12]; compound 0.1 µM): 80% | residual activity ([12]; compound 1.0 µM): 75% | residual activity ([13]; compound 0.01 µM): 99% | residual activity ([13]; compound 0.1 µM): 118% | residual activity ([13]; compound 1.0 µM): 84% | residual activity ([14]; compound 0.01 µM): 125% | residual activity ([14]; compound 0.1 µM): 113% | residual activity ([14]; compound 1.0 µM): 120% | residual activity ([15]; compound 0.01 µM): 93% | residual activity ([15]; compound 0.1 µM): 99% | residual activity ([15]; compound 1.0 µM): 96% | residual activity ([16]; compound 0.01 µM): 90% | residual activity ([16]; compound 0.1 µM): 90% | residual activity ([16]; compound 1.0 µM): 69% | residual activity ([17]; compound 0.01 µM): 93% | residual activity ([17]; compound 0.1 µM): 103% | residual activity ([17]; compound 1.0 µM): 89% | residual activity ([18]; compound 0.01 µM): 105% | residual activity ([18]; compound 0.1 µM): 106% | residual activity ([18]; compound 1.0 µM): 97% | residual activity ([19]; compound 0.01 µM): 100% | residual activity ([19]; compound 0.1 µM): 107% | residual activity ([19]; compound 1.0 µM): 102% | residual activity ([20]; compound 0.01 µM): 99% | residual activity ([20]; compound 0.1 µM): 95% | residual activity ([20]; compound 1.0 µM): 99% | residual activity ([21]; compound 0.01 µM): 99% | residual activity ([21]; compound 0.1 µM): 127% | residual activity ([21]; compound 1.0 µM): 102% | residual activity ([22]; compound 0.01 µM): 98% | residual activity ([22]; compound 0.1 µM): 99% | residual activity ([22]; compound 1.0 µM): 88% | residual activity ([23]; compound 0.01 µM): 97% | residual activity ([23]; compound 0.1 µM): 107% | residual activity ([23]; compound 1.0 µM): 92% | residual activity ([24]; compound 0.01 µM): 104% | residual activity ([24]; compound 0.1 µM): 115% | residual activity ([24]; compound 1.0 µM): 92% | residual activity ([25]; compound 0.01 µM): 80% | residual activity ([25]; compound 0.1 µM): 83% | residual activity ([25]; compound 1.0 µM): 81% | residual activity ([26]; compound 0.01 µM): 99% | residual activity ([26]; compound 0.1 µM): 102% | residual activity ([26]; compound 1.0 µM): 65% | residual activity ([27]; compound 0.01 µM): 108% | residual activity ([27]; compound 0.1 µM): 93% | residual activity ([27]; compound 1.0 µM): 108% | residual activity ([28]; compound 0.01 µM): 92% | residual activity ([28]; compound 0.1 µM): 96% | residual activity ([28]; compound 1.0 µM): 102% | residual activity ([29]; compound 0.01 µM): 127% | residual activity ([29]; compound 0.1 µM): 111% | residual activity ([29]; compound 1.0 µM): 119% | residual activity ([30]; compound 0.01 µM): 96% | residual activity ([30]; compound 1.0 µM): 84% | residual activity ([31]; compound 0.01 µM): 95% | residual activity ([31]; compound 1.0 µM): 91% | residual activity ([32]; compound 0.01 µM): 107% | residual activity ([32]; compound 0.1 µM): 132% | residual activity ([32]; compound 1.0 µM): 105% | residual activity ([33]; compound 0.01 µM): 96% | residual activity ([33]; compound 0.1 µM): 93% | residual activity ([33]; compound 1.0 µM): 106% | residual activity ([34]; compound 0.01 µM): 96% | residual activity ([34]; compound 0.1 µM): 95% | residual activity ([34]; compound 1.0 µM): 89% | residual activity ([35]; compound 0.01 µM): 112% | residual activity ([35]; compound 0.1 µM): 95% | residual activity ([35]; compound 1.0 µM): 95%

From the kinase profiling compilation of Christmann-Franck et al. (2016)
